Experimental data taken from PubChem BioAssay (NCI).
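Tested at 5 concentrations; 48 h exposure; 96-well plates; endpoints linearly interpolated, else capped at highest concentration. The concentration for 50% growth inhibition is given as GI50. TGI marks complete inhibition of growth.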

How the values were obtained:
Test in all cases: NCI anticancer screen, dose series, 48 h; in the data active = GI50 below about 0.43 µM; inactive = the rest
786-0 renal = tested on: 786-0 renal
A549 NSCLC = tested on: A549 NSCLC
ACHN renal = tested on: ACHN renal
BT-549 breast = tested on: BT-549 breast
CAKI-1 renal = tested on: CAKI-1 renal
CCRF-CEM leukemia = tested on: CCRF-CEM leukemia
COLO 205 colon = tested on: COLO 205 colon
DU-145 prostate = tested on: DU-145 prostate
EKVX NSCLC = tested on: EKVX NSCLC
HCC-2998 colon = tested on: HCC-2998 colon
HCT-116 colon = tested on: HCT-116 colon
HCT-15 colon = tested on: HCT-15 colon
HL-60(TB) leukemia = tested on: HL-60(TB) leukemia
HOP-62 NSCLC = tested on: HOP-62 NSCLC
HT29 colon = tested on: HT29 colon
IGROV1 ovarian = tested on: IGROV1 ovarian
K-562 leukemia = tested on: K-562 leukemia
KM12 colon = tested on: KM12 colon
M14 melanoma = tested on: M14 melanoma
MALME-3M melanoma = tested on: MALME-3M melanoma
MCF7 breast = tested on: MCF7 breast
MDA-N = tested on: MDA-N
MOLT-4 leukemia = tested on: MOLT-4 leukemia
NCI-H226 lung = tested on: NCI-H226 lung
NCI-H23 lung = tested on: NCI-H23 lung
NCI-H460 lung = tested on: NCI-H460 lung
NCI-H522 lung = tested on: NCI-H522 lung
NCI/ADR-RES ovarian = tested on: NCI/ADR-RES ovarian
OVCAR-3 ovarian = tested on: OVCAR-3 ovarian
OVCAR-4 ovarian = tested on: OVCAR-4 ovarian
OVCAR-5 ovarian = tested on: OVCAR-5 ovarian
OVCAR-8 ovarian = tested on: OVCAR-8 ovarian
PC-3 prostate = tested on: PC-3 prostate
RPMI-8226 leukemia = tested on: RPMI-8226 leukemia
RXF 393 renal = tested on: RXF 393 renal
SF-268 CNS = tested on: SF-268 CNS
SF-295 CNS = tested on: SF-295 CNS
SF-539 CNS = tested on: SF-539 CNS
SK-MEL-2 melanoma = tested on: SK-MEL-2 melanoma
SK-MEL-28 melanoma = tested on: SK-MEL-28 melanoma
SK-MEL-5 melanoma = tested on: SK-MEL-5 melanoma
SK-OV-3 ovarian = tested on: SK-OV-3 ovarian
SN12C renal = tested on: SN12C renal
SNB-19 CNS = tested on: SNB-19 CNS
SNB-75 CNS = tested on: SNB-75 CNS
SR leukemia = tested on: SR leukemia
SW-620 colon = tested on: SW-620 colon
TK-10 renal = tested on: TK-10 renal
U251 CNS = tested on: U251 CNS
UACC-257 melanoma = tested on: UACC-257 melanoma
UACC-62 melanoma = tested on: UACC-62 melanoma
UO-31 renal = tested on: UO-31 renal
A498 renal = tested on: A498 renal
HS 578T breast = tested on: HS 578T breast
LOX IMVI melanoma = tested on: LOX IMVI melanoma
MDA-MB-231 breast = tested on: MDA-MB-231 breast
MDA-MB-435 = tested on: MDA-MB-435
T-47D breast = tested on: T-47D breast
HOP-92 NSCLC = tested on: HOP-92 NSCLC

COc1cc(/C=C(\C#N)c2ccccn2)cc(Br)c1O
75 µM: TGI (NCI/ADR-RES ovarian)
> 100 µM: TGI (786-0 renal) | TGI (A549 NSCLC) | TGI (ACHN renal) | TGI (BT-549 breast) | TGI (CAKI-1 renal) | TGI (CCRF-CEM leukemia) | TGI (COLO 205 colon) | TGI (DU-145 prostate) | TGI (EKVX NSCLC) | TGI (HCC-2998 colon) | TGI (HCT-116 colon) | TGI (HCT-15 colon) | TGI (HL-60(TB) leukemia) | TGI (HOP-62 NSCLC) | TGI (HT29 colon) | TGI (IGROV1 ovarian) | TGI (K-562 leukemia) | TGI (KM12 colon) | TGI (M14 melanoma) | TGI (MALME-3M melanoma) | TGI (MCF7 breast) | TGI (MDA-N) | TGI (MOLT-4 leukemia) | TGI (NCI-H226 lung) | TGI (NCI-H23 lung) | TGI (NCI-H460 lung) | TGI (NCI-H522 lung) | TGI (OVCAR-3 ovarian) | TGI (OVCAR-4 ovarian) | TGI (OVCAR-5 ovarian) | TGI (OVCAR-8 ovarian) | TGI (PC-3 prostate) | TGI (RPMI-8226 leukemia) | TGI (RXF 393 renal) | TGI (SF-268 CNS) | TGI (SF-539 CNS) | TGI (SK-MEL-2 melanoma) | TGI (SK-MEL-28 melanoma) | TGI (SK-MEL-5 melanoma) | TGI (SK-OV-3 ovarian) | TGI (SN12C renal) | TGI (SNB-19 CNS) | TGI (SNB-75 CNS) | TGI (SR leukemia) | TGI (SW-620 colon) | TGI (TK-10 renal) | TGI (U251 CNS) | TGI (UACC-257 melanoma) | TGI (UACC-62 melanoma) | TGI (UO-31 renal)
83.2 µM: TGI (SF-295 CNS)

COc1ccc(CC2C3=C(CCCC3)CCN2C)cc1 (stereo not drawn)
> 100 µM: TGI (786-0 renal) | TGI (A498 renal) | TGI (A549 NSCLC) | TGI (ACHN renal) | TGI (CAKI-1 renal) | TGI (CCRF-CEM leukemia) | TGI (COLO 205 colon) | TGI (DU-145 prostate) | TGI (EKVX NSCLC) | TGI (HCC-2998 colon) | TGI (HCT-116 colon) | TGI (HCT-15 colon) | TGI (HL-60(TB) leukemia) | TGI (HOP-62 NSCLC) | TGI (HS 578T breast) | TGI (HT29 colon) | TGI (IGROV1 ovarian) | TGI (K-562 leukemia) | TGI (KM12 colon) | TGI (LOX IMVI melanoma) | TGI (M14 melanoma) | TGI (MALME-3M melanoma) | TGI (MCF7 breast) | TGI (MDA-MB-231 breast) | TGI (MDA-MB-435) | TGI (MDA-N) | TGI (MOLT-4 leukemia) | TGI (NCI-H226 lung) | TGI (NCI-H23 lung) | TGI (NCI-H460 lung) | TGI (NCI/ADR-RES ovarian) | TGI (OVCAR-3 ovarian) | TGI (OVCAR-4 ovarian) | TGI (OVCAR-5 ovarian) | TGI (OVCAR-8 ovarian) | TGI (PC-3 prostate) | TGI (RPMI-8226 leukemia) | TGI (RXF 393 renal) | TGI (SF-268 CNS) | TGI (SF-295 CNS) | TGI (SF-539 CNS) | TGI (SK-MEL-2 melanoma) | TGI (SK-MEL-28 melanoma) | TGI (SK-MEL-5 melanoma) | TGI (SK-OV-3 ovarian) | TGI (SN12C renal) | TGI (SNB-19 CNS) | TGI (SNB-75 CNS) | TGI (SW-620 colon) | TGI (T-47D breast) | TGI (TK-10 renal) | TGI (U251 CNS) | TGI (UACC-257 melanoma) | TGI (UACC-62 melanoma) | TGI (UO-31 renal)

O=C(Nc1ccc(Br)cc1F)c1cc(Br)ccc1O
7.42 µM: TGI (SW-620 colon)
2.8 µM: TGI (UO-31 renal)
9.71 µM: TGI (HT29 colon)
4.49 µM: TGI (MOLT-4 leukemia)
5.66 µM: TGI (HS 578T breast) | TGI (KM12 colon)
8.12 µM: TGI (SK-OV-3 ovarian)
11.8 µM: TGI (SR leukemia)
13.3 µM: TGI (U251 CNS)
inactive: GI50 (786-0 renal) 1.66 µM | GI50 (A549 NSCLC) 2.11 µM | GI50 (ACHN renal) 0.848 µM | GI50 (CAKI-1 renal) 0.456 µM | GI50 (CCRF-CEM leukemia) 2.03 µM | GI50 (COLO 205 colon) 2.95 µM | GI50 (DU-145 prostate) 1.47 µM | GI50 (EKVX NSCLC) 1.03 µM | GI50 (HCC-2998 colon) 2.87 µM | GI50 (HCT-116 colon) 0.732 µM | GI50 (HCT-15 colon) 0.731 µM | GI50 (HL-60(TB) leukemia) 0.59 µM | GI50 (HOP-62 NSCLC) 1.45 µM | GI50 (HS 578T breast) 0.467 µM | GI50 (HT29 colon) 3.08 µM | GI50 (K-562 leukemia) 0.453 µM | GI50 (KM12 colon) 1.93 µM | GI50 (LOX IMVI melanoma) 0.668 µM | GI50 (M14 melanoma) 0.713 µM | GI50 (MCF7 breast) 0.906 µM | GI50 (MDA-MB-231 breast) 1.09 µM | GI50 (MDA-MB-435) 0.846 µM | GI50 (MOLT-4 leukemia) 1.45 µM | GI50 (NCI-H226 lung) 0.688 µM | GI50 (NCI-H460 lung) 0.5 µM | GI50 (NCI/ADR-RES ovarian) 0.876 µM | GI50 (OVCAR-3 ovarian) 0.535 µM | GI50 (OVCAR-4 ovarian) 0.604 µM | GI50 (OVCAR-5 ovarian) 2.97 µM | GI50 (OVCAR-8 ovarian) 0.959 µM | GI50 (PC-3 prostate) 2.06 µM | GI50 (RXF 393 renal) 0.661 µM | GI50 (SF-268 CNS) 0.716 µM | GI50 (SF-295 CNS) 1.58 µM | GI50 (SF-539 CNS) 0.552 µM | GI50 (SK-OV-3 ovarian) 1.62 µM | GI50 (SN12C renal) 0.519 µM | GI50 (SNB-19 CNS) 0.502 µM | GI50 (SNB-75 CNS) 0.768 µM | GI50 (SR leukemia) 2.07 µM | GI50 (SW-620 colon) 1.14 µM | GI50 (T-47D breast) 0.457 µM | GI50 (TK-10 renal) 3.12 µM | GI50 (U251 CNS) 0.64 µM | GI50 (UACC-257 melanoma) 0.829 µM
3.56 µM: TGI (SF-295 CNS)
1.19 µM: TGI (SK-MEL-5 melanoma)
4.28 µM: TGI (HCT-116 colon)
0.651 µM: TGI (HOP-92 NSCLC)
active: GI50 (A498 renal) 0.246 µM | GI50 (BT-549 breast) 0.403 µM | GI50 (HOP-92 NSCLC) 0.177 µM | GI50 (IGROV1 ovarian) 0.4 µM | GI50 (MALME-3M melanoma) 0.32 µM | GI50 (NCI-H23 lung) 0.396 µM | GI50 (NCI-H522 lung) 0.344 µM | GI50 (RPMI-8226 leukemia) 0.322 µM | GI50 (SK-MEL-2 melanoma) 0.387 µM | GI50 (SK-MEL-28 melanoma) 0.4 µM | GI50 (SK-MEL-5 melanoma) 0.289 µM | GI50 (UACC-62 melanoma) 0.303 µM | GI50 (UO-31 renal) 0.4 µM
5.48 µM: TGI (M14 melanoma)
1.23 µM: TGI (UACC-62 melanoma)
9.11 µM: TGI (COLO 205 colon)
3.25 µM: TGI (BT-549 breast)
15.4 µM: TGI (OVCAR-8 ovarian)
5.44 µM: TGI (NCI/ADR-RES ovarian)
6.87 µM: TGI (T-47D breast)
7.32 µM: TGI (HCT-15 colon)
7.76 µM: TGI (NCI-H226 lung)
4.9 µM: TGI (MDA-MB-231 breast)
5.38 µM: TGI (NCI-H522 lung)
27.9 µM: TGI (SNB-19 CNS)
5.63 µM: TGI (MDA-MB-435)
1.82 µM: TGI (MALME-3M melanoma)
12.3 µM: TGI (TK-10 renal)
5.34 µM: TGI (UACC-257 melanoma)
15.3 µM: TGI (IGROV1 ovarian)
4.64 µM: TGI (SF-539 CNS)
2.42 µM: TGI (SK-MEL-2 melanoma)
3.62 µM: TGI (NCI-H23 lung)
1.12 µM: TGI (A498 renal)
3.33 µM: TGI (RXF 393 renal)
10.8 µM: TGI (HCC-2998 colon)
6.39 µM: TGI (SN12C renal)
6.26 µM: TGI (786-0 renal)
11.6 µM: TGI (SF-268 CNS)
16.4 µM: TGI (A549 NSCLC)
5.95 µM: TGI (SNB-75 CNS)
3.59 µM: TGI (HL-60(TB) leukemia)
25.3 µM: TGI (OVCAR-4 ovarian)
4.47 µM: TGI (LOX IMVI melanoma)
7.69 µM: TGI (PC-3 prostate)
2.02 µM: TGI (RPMI-8226 leukemia)
8.62 µM: TGI (OVCAR-3 ovarian)
4.11 µM: TGI (CAKI-1 renal)
> 44.4 µM: TGI (CCRF-CEM leukemia)
> 35.9 µM: TGI (K-562 leukemia)
2.13 µM: TGI (SK-MEL-28 melanoma)
11.7 µM: TGI (EKVX NSCLC)
7.2 µM: TGI (NCI-H460 lung)
23.1 µM: TGI (DU-145 prostate)
9.18 µM: TGI (ACHN renal)
6.36 µM: TGI (HOP-62 NSCLC)
33.3 µM: TGI (OVCAR-5 ovarian)
8.96 µM: TGI (MCF7 breast)
